Assay results taken from patent US20260027131A1, “PRODRUGS, PRODRUG COMPOSITIONS AND RELATED METHODS” (Praesidia Biotherapeutics Inc., priority 2022, published 2026).
Read-outs that look alike come from different tables or passages of the source.

Legend:
[1] = Chemical stability at pH 4.5 and pH 7.4 in PBS; assay type: physicochemical; conditions: for Chemical Stability, pH 4.5: PBS pH 4.5, 37° C.; for Chemical Stability, pH 4.5 / Chemical Stability, pH 7.4: 5 μM, up to 240 min; for Chemical Stability, pH 7.4: PBS pH 7.4, 37° C.; for Chemical stability: Table 6, pH not stated
Description: The assay was performed in duplicate. […] Samples were incubated at 37° C. at 600 rpm.

Rat plasma stability = assay type: in vitro ADME; conditions: for Rat plasma stability: Table 6, unit not given; for half-life at 5 μM: rat, plasma
Description: Rat and human plasma were obtained from qualified vendors. […] The assay was performed in duplicate.

[2] = Metabolic stability in rat liver microsomes; assay type: in vitro ADME; conditions: rat liver microsomes, 1 μM, NADPH; Table 6, unit not given
Description: Rat liver microsomes were obtained from qualified vendors and metabolic stability of the test compound was determined at 1 μM. The compound was incubated at 37° C. with 0.5 mg microsome/mL in the buffer in the presence of 1 mM NADPH. Aliquots of 50 μL were taken from the reaction solution at 0, 15, 30, 45 and 60 minutes. […] All samples were analyzed in duplicates.

[3] = Permeability study using Caco-2 cell monolayers; conditions: human, Caco-2, pH 7.4
Description: (§2) CaCO-2 cells were cultured, and a monolayer was developed in-house in 96 well-plates over 18 days using standard protocol. The monolayer was tested for the integrity of the cell monolayer before using.
(§3) Test compounds were added to the transwell insert (apical compartment) to determine the rate of drug transport in the apical to basolateral direction. To determine the rate of drug transport in the basolateral to apical direction, the test compound was added to the receiver plate wells (basolateral compartment). Appropriate amount of HBSS (10 mM HEPES, pH 7.4) was added in both compartments for a final volume of 200 μL. The plates were incubated at 37° C. with shaking at 150 rpm on a rotary shaker for 2 hours. At the end of the transport period, 50 μL from the apical and basolateral wells were collected and 4 volume of cold acetonitrile containing internal standards (IS: 100 nM alprazolam, 200 nM labetalol, and 2 μM ketoprofen) was added to each sample to terminate the reaction. The samples were vortexed and centrifuged at 3,800 g for 20 minutes. An aliquot of 150 μL of the supernatant was used for LC/MS/MS analysis. All samples were analyzed in duplicates. Samples were analyzed through LC/MS/MS for estimating the permeability and efflux of the compounds across Caco-2 cell monolayers.

Caco-2 cell monolayers = assay: Permeability study using Caco-2 cell monolayers; conditions: 2 hours; for Permeability A-B: apical to basolateral; for Permeability B-A: basolateral to apical
Description: as §2, §3

[4] = Pharmacokinetic studies in rats: plasma and lung; conditions: rat, single i.v., 2 mg/kg dexamethasone equivalent
Description: (§1) Six to eight weeks old Sprague-Dawley rats were procured from a qualified provider. Test compounds were introduced in rats by a single intravenous administration. […] Blood samples (0.1, 0.2 or 0.5 mL) were collected with a 1 mL syringe containing anticoagulants K2EDTA. Blood samples were centrifuged to obtain plasma for analysis. […] After collection at each time point, lung samples were frozen at −75° C. Prior to analysis, a portion of lung sample was weighed and homogenized with phosphate buffer saline. […] Data analysis and pharmacokinetic parameters were generated using WinNonlin software.

[5] = biological target: T1, Glucocorticoid receptor (GR) (Homo sapiens, UniProt P04150); assay: TR-FRET GR competitive binding assay; conditions: 0.1 μM
T1 sequence (P04150 1-777): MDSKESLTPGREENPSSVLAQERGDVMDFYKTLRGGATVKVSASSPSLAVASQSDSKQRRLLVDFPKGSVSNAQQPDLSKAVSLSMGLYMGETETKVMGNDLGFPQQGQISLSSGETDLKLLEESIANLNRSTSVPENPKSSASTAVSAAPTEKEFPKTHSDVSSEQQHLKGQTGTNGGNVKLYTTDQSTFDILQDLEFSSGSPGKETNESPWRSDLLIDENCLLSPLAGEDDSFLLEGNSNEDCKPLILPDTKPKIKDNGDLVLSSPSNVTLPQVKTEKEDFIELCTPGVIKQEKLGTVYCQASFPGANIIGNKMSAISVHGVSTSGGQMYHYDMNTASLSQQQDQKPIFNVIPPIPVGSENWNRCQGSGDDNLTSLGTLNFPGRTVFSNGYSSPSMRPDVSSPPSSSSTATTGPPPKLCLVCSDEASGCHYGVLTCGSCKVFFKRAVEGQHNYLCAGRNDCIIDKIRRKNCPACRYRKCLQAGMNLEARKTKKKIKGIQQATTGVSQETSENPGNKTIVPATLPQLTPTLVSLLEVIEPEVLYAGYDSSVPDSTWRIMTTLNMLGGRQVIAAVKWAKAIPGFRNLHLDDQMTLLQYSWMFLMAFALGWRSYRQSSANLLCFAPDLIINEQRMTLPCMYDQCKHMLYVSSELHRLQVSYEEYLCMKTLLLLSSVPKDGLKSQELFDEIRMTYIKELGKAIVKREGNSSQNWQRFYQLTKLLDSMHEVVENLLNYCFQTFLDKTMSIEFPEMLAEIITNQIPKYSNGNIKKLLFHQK
Description: Glucocorticoid receptor (GR) binding of prodrugs was determined using TR-FRET GR competitive binding assay. Three-point (0.1, 1 and 10 μM) binding was evaluated for each prodrug.

in vitro = conditions: human, plasma
Description: (§4) Rat and human plasma were obtained from qualified vendors. 5 μL of 500 μM of the test article solution was added to 495 μL of pre-incubated human or rat plasma to reach a final concentration of 5 μM. The final concentration of organic solvents was not more than 0.5%. The assay was performed in duplicate. The reaction samples were incubated in a 37° C. water bath with shaking at approximately 60 rpm. 50 μL of the reaction samples were collected at 0, 30, 60, 120 and 180 minutes. The reaction was stopped by adding 300 μL of room temperature quench solution (acetonitrile containing internal standards (IS, 200 nM labetalol, 100 nM alprazolam and 2 μM ketoprofen)). The samples were vortexed for 5 minutes followed by centrifugation of the samples at 3,220 g for 30 minutes at room temperature to precipitate the protein. 100 μL of the supernatant was transferred to a new plate and diluted with 100 μL or 200 μL water according to the LC/MS signal response and peak shape. The samples were mixed well and analyzed using LC/MS/MS. The remaining percentage of parent drug versus reaction time was used to calculate the t1/2 value.

[6] = Sprague-Dawley, rat, in vivo, iv, 2 mg/kg
Description: as §1, with “1 ml” for “1 mL”, “of brain” for “of lung”

Description for Human plasma stability: as §4

SMILES | Chemical Stability, pH 4.5 [1] | Chemical Stability, pH 7.4 [1] | Chemical stability [1] | Rat plasma stability (Rat plasma stability) | RLM [2] | half-life at 5 μM (Human plasma stability) [h] | efflux ratio at 2 h [3] | Permeability A-B (Caco-2 cell monolayers) | Permeability B-A (Caco-2 cell monolayers) | Conc in Prodrug in lung ([4]; 15 min) | Conc of Prodrug in plasma ([4]; 15 min) | Conc in Prodrug in lung ([4]; 60 min) | Conc of Prodrug in plasma ([4]; 60 min) | Conc in Prodrug in lung ([4]; 360 min) | Conc of Prodrug in plasma ([4]; 360 min) | further results
COc1cccc(NC(=O)[C@@H](N)C(C)C)c1C(=O)OCC(=O)[C@@]1(O)[C@H](C)CC2[C@@H]3CCC4=CC(=O)C=C[C@]4(C)[C@@]3(F)[C@@H](O)C[C@@]21C.Cl (stereo partly drawn) [Compound 9] | Yes | Yes | Yes | >240 | 24 | > 4 | 279 | A-B = 0.025 × 10^−6, cm/s | B-A = 7 × 10^−6, cm/s | 992 ± 422 | 694 ± 83 | 959 ± 283 | 244 ± 13 | 433 ± 212 | 21 ± 1.5 | 
CC(C)[C@H](N)C(=O)Nc1ccccc1C1(C(=O)OCC(=O)[C@@]2(O)[C@H](C)C[C@H]3[C@@H]4CCC5=CC(=O)C=C[C@]5(C)[C@@]4(F)[C@@H](O)C[C@@]32C)CC1.Cl [Compound 25] | Yes | Yes | Yes | >240 | 38 | > 4 | 170 | A-B = 0.065 × 10^−6, cm/s | B-A = 11 × 10^−6, cm/s | 3895 ± 368 | 742 ± 96 | 5827 ± 1483 | 367 ± 55 | 1425 ± 509 | 34 ± 10 | GR Binding Data [5]: 19%; half-life at 5 μM (Rat plasma stability; read-out: Rat Plasma Stability t½): > 4 h
CC(C)C(C(=O)N1CCCC1C(=O)N(C)CC(C)(C)C(C)C(=O)OCC(=O)[C@@]1(O)[C@H](C)C[C@H]2[C@@H]3CCC4=CC(=O)C=C[C@]4(C)[C@@]3(F)[C@@H](O)C[C@@]21C)N(C)C (stereo partly drawn) [Compound 33] |  |  |  |  |  |  |  |  |  |  |  |  |  |  |  | half-life at 5 μM (Rat plasma stability): > 4 h; half-life at 5 μM (in vitro): > 4 h; Conc of Dex in plasma [6]: 18.8 ± 7.75; Conc of Prodrug in plasma [6]: 6549 ± 1537
